The values below come from PubChem BioAssay (NCI).

Some test systems named below: NCI-H460 lung; SW-620 colon; NCI-H522 lung; NCI-H226 lung; SF-539 CNS; HOP-92 NSCLC; NCI-H23 lung; DU-145 prostate; OVCAR-3 ovarian; 786-0 renal.
Common to all, as to assay: inhibition of tumour cell growth, NCI panel, 48 h

Where “and” joins values, the source holds several entries; their conditions need not be identical. Equal entries are not always repeated.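 A five-concentration, 48-hour dose response in 96-well plates underlies each endpoint, interpolated linearly between surrounding concentrations. GI50: concentration for 50% inhibition of growth. TGI: total growth inhibition.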

Turning to `COc1ccc(-c2cc(=O)c3c(O)c(OC)c(OC)c(OC)c3o2)cc1`, the TGI in the assay on NCI-H460 lung is above 100 µM; with SW-620 colon, above 100 µM; with NCI-H522 lung, above 100 µM; with NCI-H226 lung it was above 100 µM; in the assay with SF-539 CNS, above 100 µM; in the assay on HOP-92 NSCLC, above 82.8 µM. Further, the TGI with NCI-H23 lung is above 74.7 µM; in the assay with DU-145 prostate, above 100 µM; with OVCAR-3 ovarian, above 100 µM; with 786-0 renal it was above 100 µM.

Consider `C=C(C)[C@@H]1CC[C@]2(C(=O)NS(=O)(=O)c3ccccc3)CC[C@]3(C)[C@H](CC[C@@H]4[C@@]5(C)CC[C@H](OC(=O)NS(=O)(=O)c6ccccc6)C(C)(C)[C@@H]5CC[C@]43C)[C@@H]12`, for which the GI50 in the assay on NCI-H460 lung was 1.49 µM; in the assay on SW-620 colon it was 3.27 µM; with NCI-H522 lung, 2.48 µM; in the assay on NCI-H226 lung, 2.38 µM; with SF-539 CNS, 1.27 µM; with HOP-92 NSCLC, 1.9 µM. Moreover, the GI50 with NCI-H23 lung was 2.41 µM; with DU-145 prostate, 3.18 µM; in the assay with OVCAR-3 ovarian it was 1.85 µM; with 786-0 renal, 2.42 µM. Moreover, the TGI amounted to 3.26 µM with NCI-H460 lung; 15.2 µM with SW-620 colon; 9.19 µM in the assay on NCI-H522 lung; 13.8 µM in the assay with NCI-H226 lung; 2.59 µM with SF-539 CNS; 4.72 µM in the assay with HOP-92 NSCLC. Moreover, the TGI is 8.51 µM in the assay on NCI-H23 lung, 13.8 µM in the assay on DU-145 prostate, 3.62 µM in the assay on OVCAR-3 ovarian and 6.93 µM with 786-0 renal.

For `Cc1cc(O)c(-c2ccc([C@@H](C)CN(C)C)cc2)c2c1[nH]c(=O)c1sccc12`, the GI50 is 0.335 µM in the assay on NCI-H460 lung; 0.556 µM with SW-620 colon; 0.436 µM in the assay on NCI-H522 lung; 1.75 µM in the assay on NCI-H226 lung; 0.219 µM with SF-539 CNS; 0.848 µM with HOP-92 NSCLC. Further, the GI50 is 1.06 µM in the assay with NCI-H23 lung, 0.528 µM in the assay with DU-145 prostate, 0.613 µM in the assay with OVCAR-3 ovarian and 0.248 µM with 786-0 renal. Also, the TGI in the assay with NCI-H460 lung is above 49.1 µM; in the assay on SW-620 colon, above 61.9 µM; in the assay on NCI-H522 lung, 2.9 µM; with NCI-H226 lung, 18.4 µM; with SF-539 CNS, 1.97 µM; in the assay with HOP-92 NSCLC, 5.35 µM. In addition, the TGI in the assay with NCI-H23 lung is 6.41 µM; with DU-145 prostate, 53.3 µM; in the assay on OVCAR-3 ovarian it was 6.17 µM; in the assay with 786-0 renal, 5.43 µM.

With `CS(=O)(=O)N(c1cc(-c2ccc3ncnc(Nc4ccc(F)c(Cl)c4)c3c2)cnc1Cl)S(C)(=O)=O`, the GI50 is 1.76 µM in the assay with NCI-H460 lung; 1.71 µM in the assay on SW-620 colon; 1.57 µM in the assay on NCI-H522 lung; 1.9 µM in the assay with NCI-H226 lung; 1.05 µM in the assay on SF-539 CNS; 0.191 µM in the assay on HOP-92 NSCLC. For the same compound, the GI50 is 0.861 µM with NCI-H23 lung, 1.18 µM with DU-145 prostate, 0.728 µM in the assay on OVCAR-3 ovarian and 1.58 µM in the assay with 786-0 renal. The TGI in the assay with NCI-H460 lung is 13.5 µM; with SW-620 colon, above 38.4 µM; in the assay with NCI-H522 lung, 11.1 µM; with NCI-H226 lung, 24.3 µM; in the assay on SF-539 CNS, 4.83 µM; with HOP-92 NSCLC, 1.73 µM. For the same compound, the TGI is 5.15 µM with NCI-H23 lung, 24.9 µM with DU-145 prostate, 4.24 µM with OVCAR-3 ovarian and above 26.4 µM in the assay on 786-0 renal.

As to `Nc1cccc2c1C(=O)c1cccc(NC(=O)c3ccccc3)c1C2=O`, the GI50 is 0.371 µM in the assay with NCI-H460 lung; 0.267 µM in the assay on SW-620 colon; 0.0655 µM in the assay with NCI-H522 lung; 1.7 µM in the assay on NCI-H226 lung; 0.292 µM in the assay on SF-539 CNS; 0.34 µM in the assay on HOP-92 NSCLC. Besides, the GI50 is 0.903 µM in the assay on NCI-H23 lung, 0.561 µM in the assay with DU-145 prostate, 0.254 µM with OVCAR-3 ovarian and 0.646 µM in the assay with 786-0 renal. In addition, the TGI is above 32.6 µM in the assay with NCI-H460 lung; above 100 µM with SW-620 colon; 0.618 µM in the assay with NCI-H522 lung; above 100 µM in the assay on NCI-H226 lung; 13 µM in the assay with SF-539 CNS; 6.72 µM in the assay with HOP-92 NSCLC. The TGI in the assay with NCI-H23 lung is above 100 µM; in the assay with DU-145 prostate, above 22.6 µM; with OVCAR-3 ovarian, 1.47 µM; in the assay with 786-0 renal, 15.7 µM.

With `CNC(=O)c1ccccc1Nc1nc(Nc2ccc3c(c2OC)CCC[C@H](N2CCN(CCO)CC2)C3)ncc1Cl`, the GI50 was 0.892 µM and 0.574 µM with NCI-H460 lung; 0.863 µM and 0.669 µM in the assay with SW-620 colon; 1.89 µM and 1.12 µM in the assay on NCI-H522 lung; 7.65 µM and 2.57 µM in the assay on NCI-H226 lung; 1.95 µM and 4.38 µM in the assay on SF-539 CNS; 0.154 µM and 0.148 µM with HOP-92 NSCLC. Also, the GI50 was 2.5 µM and 1.21 µM in the assay with NCI-H23 lung; 1.17 µM and 0.888 µM with DU-145 prostate; 6.74 µM and 3.18 µM in the assay on OVCAR-3 ovarian; 1.48 µM and 1.44 µM in the assay on 786-0 renal. Also, the TGI with NCI-H460 lung was 13.3 µM and > 10 µM; in the assay with SW-620 colon, 11.3 µM and > 10 µM; in the assay with NCI-H522 lung it was 10.5 µM and 4.32 µM; in the assay with NCI-H226 lung, 20.8 µM and > 10 µM; in the assay on SF-539 CNS, 5.31 µM and > 10 µM; in the assay with HOP-92 NSCLC, 1.64 µM and 0.863 µM. The TGI in the assay on NCI-H23 lung is 15 µM and > 10 µM; in the assay with DU-145 prostate it was 14.8 µM and > 10 µM; with OVCAR-3 ovarian, 20.3 µM and > 10 µM; with 786-0 renal, 4.24 µM and 5.06 µM.

For `C[N+](C)=c1ccc2nc3c(cc(NCCCNc4cc5oc6cc(=[N+](C)C)ccc-6nc5c5ccccc45)c4ccccc43)oc-2c1`, the GI50 was 1.89 µM in the assay with NCI-H460 lung; 1.77 µM in the assay with SW-620 colon; 1.5 µM in the assay on NCI-H522 lung; 22.1 µM in the assay on NCI-H226 lung; 1.73 µM in the assay with SF-539 CNS; 14.7 µM in the assay with HOP-92 NSCLC. For the same compound, the GI50 in the assay on NCI-H23 lung is 1.61 µM; in the assay on DU-145 prostate, 1.53 µM; in the assay with OVCAR-3 ovarian, 0.341 µM; in the assay with 786-0 renal, 4.66 µM. Also, the TGI in the assay on NCI-H460 lung stood at 4.06 µM; with SW-620 colon, 4.02 µM; in the assay on NCI-H522 lung, 4.59 µM; in the assay on NCI-H226 lung, 63.7 µM; in the assay on SF-539 CNS it was 3.76 µM; in the assay with HOP-92 NSCLC, 40.1 µM. In addition, the TGI in the assay on NCI-H23 lung was 5.45 µM; with DU-145 prostate, 2.91 µM; in the assay on OVCAR-3 ovarian it was 2.33 µM; in the assay with 786-0 renal, 43.4 µM.
